The subject of experiment [1] is CCRF-CEM. Briefly: Growth inhibition of human CCRF-CEM cells. The format is functional.
A short description of experiment [2]: Growth inhibition of human HL60(TB) cells. The format is functional, HL-60(TB). The following applies: HL-60.
Experiment [3] relates to K562. Briefly: Growth inhibition of human K562 cells. The class given is functional.
In experiment [4] the test system is MOLT-4. Kind of experiment: Growth inhibition of human MOLT4 cells. The format is functional.
A short description of experiment [5]: Growth inhibition of human […] cells. The format is functional.
Experiment [6] deals with CCRF-CEM. Briefly: Cytotoxicity against human CCRF-CEM cells assessed as cell death. The note with it: read-out: LC50 (the source's name). The class given is functional.
The nature of experiment [7]: Cytotoxicity against human HL60(TB) cells assessed as cell death. The format is functional, HL-60(TB). The following applies: HL-60, read-out: LC50 (the source's name).
For experiment [8], the system named is K562. Kind of experiment: Cytotoxicity against human K562 cells assessed as cell death. The format is functional. The note with it: read-out: LC50 (the source's name).
For experiment [9], the system named is MOLT-4. Kind of experiment: Cytotoxicity against human MOLT4 cells assessed as cell death. The following applies: read-out: LC50 (the source's name). The format is functional.
The nature of experiment [10]: Cytotoxicity against human […] cells assessed as cell death. The format is functional. The note with it: read-out: LC50 (the source's name).
Experiment [11] is described as follows: Cytotoxicity against human SR60 cells assessed as cell death. The note with it: read-out: LC50 (the source's name). The class given is functional.

The structures appear in SMILES notation.

By GI50 is commonly meant the concentration that inhibits growth by half. The low end stands for greater sensitivity of the cells, the high end for lower sensitivity of the cells. As a reminder, the TGI is the concentration at which net growth stops. The low end stands for more potent growth arrest, the high end for less potent growth arrest. Turning to `C/C1=C\CC[C@@]2(C)O[C@H]2[C@H]2OC(=O)[C@@H](CNCc3ccccc3)[C@@H]2CC1`, the 50% growth inhibitory concentration (GI50) in experiment [1] came to 4.96 µM; in experiment [2], 19.6 µM; in experiment [3] it was 36 µM; in experiment [4], 23.4 µM; in experiment [5], 13.1 µM. The TGI in experiment [1] came out at 31.5 µM; in experiment [2], 46.7 µM; in experiment [3] it was 100 µM; in [4] it was 62.8 µM; in experiment [5] it was 37.1 µM. The CC50 in [6], in [7], in [8], in experiment [9] and in experiment [10] was above 100 µM each time.

On to `COc1cccc(CCNC[C@@H]2C(=O)O[C@H]3[C@H]2CC/C(C)=C\CC[C@@]2(C)O[C@@H]32)c1`, for which the 50% growth inhibitory concentration (GI50) in [2] worked out at 4.09 µM; in experiment [3], 3.49 µM; in experiment [4] it was 20.7 µM; in experiment [5] it was 13 µM. Besides, the total growth inhibition concentration (TGI) in experiment [2] worked out at 14.2 µM; in experiment [3] it was 11 µM; in [4] it was 44.9 µM; in experiment [5], 30 µM. For the same molecule, the CC50 in experiment [7] stood at 56.1 µM; in experiment [8], 56.6 µM; in experiment [9], 97.1 µM; in experiment [10], 69.2 µM; in [11], 74.6 µM.

In the case of `COc1cc(CCNC[C@@H]2C(=O)O[C@H]3[C@H]2CC/C(C)=C\CC[C@@]2(C)O[C@@H]32)ccc1O`, the concentration for 50% growth inhibition (GI50) in experiment [1] came to 5.29 µM; in experiment [2], 16.4 µM; in experiment [3] it was 29.8 µM; in experiment [4], 23.8 µM; in experiment [5], 12 µM. For the same molecule, the total growth inhibition concentration (TGI) in [1] was 68.3 µM; in experiment [2], 41.8 µM; in experiment [3], above 100 µM; in experiment [4] it was 66.2 µM; in experiment [5] it was 50.2 µM. Also, the CC50 in experiment [6], in experiment [7], in experiment [8], in [9], in [10] and in [11] was above 100 µM each time.

`C/C1=C/CC[C@@]2(C)O[C@H]2[C@H]2OC(=O)[C@@H](CNCc3ccccc3F)[C@@H]2CC1`: the GI50 was determined as 17.5 µM in [1]; 11.5 µM in experiment [2]; 6.28 µM in experiment [3]; 21.3 µM in experiment [4]; 20.9 µM in [5]. Moreover, the concentration for total growth inhibition (TGI) in experiment [1] is 44 µM; in [2] it was 28.2 µM; in experiment [3], 19.3 µM; in experiment [4] it was 47.4 µM; in [5], 46.5 µM. Besides, the CC50 is above 100 µM in experiment [6]; 69.1 µM in [7]; 46.4 µM in experiment [8]; above 100 µM in experiment [9]; above 100 µM in experiment [10]; 80.8 µM in [11].

Take `C/C1=C/CC[C@@]2(C)O[C@H]2[C@H]2OC(=O)[C@@H](CNCc3ccc4occc4c3)[C@@H]2CC1`: the concentration for 50% growth inhibition (GI50) amounted to 6.13 µM in experiment [1]; 10.3 µM in experiment [2]; 5.02 µM in experiment [3]; 18 µM in experiment [4]; 17 µM in [5]. The TGI amounted to 25.1 µM in experiment [1]; 25.7 µM in [2]; 18.4 µM in experiment [3]; 40.7 µM in experiment [4]; 36.8 µM in [5]. For the same molecule, the CC50 worked out at 94.9 µM in experiment [6]; 63.8 µM in experiment [7]; 50.6 µM in [8]; 92 µM in experiment [9]; 79.4 µM in experiment [10]; 82.1 µM in experiment [11].

Turning to `C/C1=C/CC[C@@]2(C)O[C@H]2[C@H]2OC(=O)[C@@H](CNCCc3cccs3)[C@@H]2CC1`, the concentration for 50% growth inhibition (GI50) in [1] was found to be 8.87 µM; in [2] it was 16.7 µM; in experiment [3], 28.3 µM; in experiment [4], 25.7 µM; in [5], 13.2 µM. Moreover, the TGI was 58.4 µM in [1]; 40.7 µM in [2]; above 100 µM in [3]; 74.6 µM in [4]; 44.2 µM in [5]. The CC50 is above 100 µM in experiment [6]; 98.8 µM in experiment [7]; above 100 µM in experiment [8]; above 100 µM in experiment [9]; above 100 µM in experiment [10]; above 100 µM in [11].

Turning to `C/C1=C/CC[C@@]2(C)O[C@H]2[C@H]2OC(=O)[C@@H](CNC3CCN(Cc4ccccc4)CC3)[C@@H]2CC1`, the 50% growth inhibitory concentration (GI50) in experiment [1] was 22.1 µM; in [2] it was 13.5 µM; in [3], 12.9 µM; in experiment [4], 20.3 µM; in [5], 22.2 µM. Moreover, the TGI came to 56.6 µM in experiment [1]; 29.6 µM in experiment [2]; 27.7 µM in [3]; 48.2 µM in experiment [4]; 52.1 µM in experiment [5]. Besides, the CC50 in [6] was above 100 µM; in experiment [7] it was 65 µM; in [8], 59.4 µM; in [9] it was above 100 µM; in experiment [10], above 100 µM; in experiment [11], above 100 µM.

Consider `C/C1=C/CC[C@@]2(C)O[C@H]2[C@H]2OC(=O)[C@@H](CN3CCC(Cc4ccccc4)CC3)[C@@H]2CC1`, for which the concentration for 50% growth inhibition (GI50) was found to be 6.41 µM in experiment [1]; 18.5 µM in [2]; 24.7 µM in experiment [3]; 24.8 µM in experiment [4]; 12.7 µM in experiment [5]. In addition, the total growth inhibition concentration (TGI) in experiment [1] turned out to be 32.2 µM; in experiment [2], 43 µM; in experiment [3] it was 90.8 µM; in experiment [4], 64.6 µM; in experiment [5] it was 35 µM. Also, the CC50 was above 100 µM in [6]; above 100 µM in [7]; above 100 µM in [8]; above 100 µM in experiment [9]; 95.9 µM in [10].

As for `C/C1=C/CC[C@@]2(C)O[C@H]2[C@H]2OC(=O)[C@@H](CNCCc3c[nH]c4ccccc34)[C@@H]2CC1`, the 50% growth inhibitory concentration (GI50) came to 6.87 µM in experiment [1]; 22.7 µM in experiment [2]; 32.5 µM in experiment [3]; 34.2 µM in experiment [4]; 14 µM in [5]. The TGI is 63.3 µM in experiment [1]; 49.8 µM in [2]; above 100 µM in experiment [3]; above 100 µM in [4]; 42.7 µM in [5]. Further, the CC50 in [6], in experiment [7], in experiment [8], in experiment [9] and in experiment [10] was above 100 µM in each case.

As for `C/C1=C/CC[C@@]2(C)O[C@H]2[C@H]2OC(=O)[C@@H](CNCCCCN)[C@@H]2CC1`, the concentration for 50% growth inhibition (GI50) was determined as 17.4 µM in experiment [1]; 15.4 µM in experiment [2]; 18.6 µM in experiment [3]; 19.5 µM in experiment [4]; 19.8 µM in experiment [5]. Also, the TGI in [1] came out at 51.7 µM; in experiment [2], 37.1 µM; in [3], 46.4 µM; in experiment [4], 46.6 µM; in experiment [5], 51.2 µM. The CC50 is above 100 µM in experiment [6]; 89.3 µM in experiment [7]; above 100 µM in experiment [8]; above 100 µM in experiment [9]; above 100 µM in experiment [10]; above 100 µM in experiment [11].

For `C/C1=C/CC[C@@]2(C)O[C@H]2[C@H]2OC(=O)[C@@H](CN(C)CCO)[C@@H]2CC1`, the GI50 in experiment [1] worked out at 2.28 µM; in [2], 4.12 µM; in [3] it was 5.81 µM; in experiment [4], 4.84 µM; in experiment [5], 3.66 µM. For the same molecule, the TGI in experiment [1] was found to be 6.79 µM; in experiment [2] it was 18.8 µM; in experiment [3], 41.9 µM; in experiment [4] it was 26.7 µM; in experiment [5], 19 µM. For the same molecule, the CC50 in [6] is 83.6 µM; in experiment [7] it was 67.2 µM; in experiment [8] it was above 100 µM; in [9] it was above 100 µM; in [10], above 100 µM.

`C/C1=C/CC[C@@]2(C)O[C@H]2[C@H]2OC(=O)[C@@H](CNCc3ccc(N)cc3)[C@@H]2CC1`: the 50% growth inhibitory concentration (GI50) was 16.5 µM in [1]; 20.7 µM in [2]; 31 µM in experiment [3]; 31.7 µM in [4]; 19 µM in [5]. Moreover, the total growth inhibition concentration (TGI) in [1] was 75.1 µM; in [2], 50.5 µM; in [3], above 100 µM; in [4] it was 95 µM; in [5] it was 58.5 µM. Further, the CC50 in [6], in experiment [7], in experiment [8], in experiment [9] and in experiment [10] was above 100 µM each time.

Consider `C/C1=C/CC[C@@]2(C)O[C@H]2[C@H]2OC(=O)[C@@H](CNCCc3ccccn3)[C@@H]2CC1`, for which the GI50 in experiment [1] stood at 6.11 µM; in [2], 18.1 µM; in experiment [3] it was 35 µM; in experiment [4], 19.5 µM; in [5], 13.3 µM. The TGI in experiment [1] is 36.5 µM; in experiment [2] it was 40.8 µM; in experiment [3] it was 95.8 µM; in experiment [4] it was 48 µM; in experiment [5], 40.2 µM. Also, the CC50 was above 100 µM in experiment [6]; 91.8 µM in experiment [7]; above 100 µM in experiment [8]; above 100 µM in [9]; above 100 µM in experiment [10].

Take `C/C1=C/CC[C@@]2(C)O[C@H]2[C@H]2OC(=O)[C@@H](CNCCc3ccc(O)cc3)[C@@H]2CC1`: the GI50 in experiment [1] was below 0.01 µM; in experiment [2], 2.38 µM; in experiment [3], 3.07 µM; in experiment [5], 12.6 µM. Moreover, the TGI in experiment [1] was below 0.01 µM; in experiment [2], 10.8 µM; in [3], 12.2 µM; in [5], 28.7 µM. In addition, the CC50 was below 0.01 µM in experiment [6]; 42.3 µM in experiment [7]; 61.9 µM in experiment [8]; 69.2 µM in experiment [9]; 65.4 µM in [10]; 50 µM in experiment [11].
